In patent US20250195521A1 (Revolution Medicines, Inc., priority 2020, published 2025):
Where two headings read alike, the source gives them in different places.

Tests used:
NRAS Q61R = NRAS Q61R (Homo sapiens (Human), UniProt P01111+P62937, Q61R); assay: Ras-Raf disruption/FRET/MOA assay (BRAF RBD, Cyclophilin A); assay type: biochemical
Outline: (§1)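 Measured: compound-facilitated Cyclophilin A:Ras complex blocking RAF RBD binding. Conditions: 12.5 nM Ras-GMPPNP, 50 nM BRAF RBD, 25 μM CypA, 3 h plus 1.5 h detection. Output: IC50 from TR-FRET ratio.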

NRAS WT = NRAS WT (Homo sapiens (Human), UniProt P01111+P62937); assay: as above; assay type: biochemical
Outline: as §1

KRAS Q61H = KRAS Q61H (Homo sapiens (Human), UniProt P01116+P62937, Q61H); assay: as above; assay type: biochemical
Outline: (§2)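 His6-K-Ras-GMPPNP (12.5 nM), GST-BRAF RBD (50 nM) and tagless Cyclophilin A (25 μM) were combined in 25 mM HEPES pH 7.3 with 100 mM NaCl, 5 mM MgCl2, 0.1% BSA and 0.002% Tween20, with compound as a 10-point 3-fold series from 30 μM final, then incubated 3 h at 25° C.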

KRAS G13C = KRAS G13C (Homo sapiens (Human), UniProt P01116+P62937, G13C); assay: as above; assay type: biochemical; conditions: read-out: KRAS G13C FRET IC50
Outline: as §2

KRAS G12D = KRAS G12D (Homo sapiens (Human), UniProt P01116+P62937, G12D); assay: as above; assay type: biochemical; conditions: read-out: KRAS G12D FRET IC50
Outline: as §2

NRAS Q61K = NRAS Q61K (Homo sapiens (Human), UniProt P01111+P62937, Q61K); assay: as above; assay type: biochemical
Outline: as §1

[1] = system: Capan-1 cells (K-Ras G12V); assay: CellTiter-Glo cell viability, Capan-1; assay type: cell-based, human; conditions: K-Ras G12V, 5-day treatment, read-out: Capan-1 Cell Viability IC50
Outline: (§3)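 Luminescence read on day 5 after ~30 min room-temperature equilibration; compounds added directly to plated cells. Values = (sample signal/avg DMSO)*100, four-parameter logistic fit.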

[2] = system: NCI-H358 cells (K-Ras G12C); assay: CellTiter-Glo cell viability, NCI-H358; assay type: cell-based, human; conditions: K-Ras G12C, 5-day treatment, read-out: H358 Cell Viability IC50
Outline: as §3

[3] = system: K-Ras G12C (NCI-H358 cells); assay: Potency assay: pERK in NCI-H358 cells; assay type: cell-based, human; conditions: NCI-H358 cells, 4 hours, read-out: pERK EC50 (H358 KRAS G12C)
Outline: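 Cells plated the day before were exposed for 4 h at 37° C, 5% CO2 to a 10-point, 3-fold DMSO dilution series (10 mM top stock), in duplicate. Phospho-ERK was read by AlphaLISA SureFire Ultra or by In-Cell Western with DRAQ5 DNA stain, and IC50 came from a 4-parameter sigmoidal fit.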

KRAS G12C = KRAS G12C (Homo sapiens (Human), UniProt P01116+P62937, G12C); assay: Ras-Raf disruption/FRET/MOA assay (BRAF RBD, Cyclophilin A); assay type: biochemical; conditions: read-out: KRAS G12C FRET IC50
Outline: as §2

KRAS G12S = KRAS G12S (Homo sapiens (Human), UniProt P01116+P62937, G12S); assay: as above; assay type: biochemical; conditions: read-out: KRAS G12S FRET IC50
Outline: as §2

KRAS WT = KRAS WT (Homo sapiens (Human), UniProt P01116+P62937); assay: as above; assay type: biochemical; conditions: read-out: KRAS WT FRET data IC50
Outline: as §2

NRAS G12C = NRAS G12C (Homo sapiens (Human), UniProt P01111+P62937, G12C); assay: as above; assay type: biochemical; conditions: read-out: NRAS G12C FRET data IC50
Outline: as §1

KRAS G12V = KRAS G12V (Homo sapiens (Human), UniProt P01116+P62937, G12V); assay: as above; assay type: biochemical; conditions: read-out: KRAS G12V FRET IC50
Outline: as §2

KRAS G13D = KRAS G13D (Homo sapiens (Human), UniProt P01116+P62937, G13D); assay: as above; assay type: biochemical; conditions: read-out: KRAS G13D FRET data IC50
Outline: as §2

Sequence of NRAS Q61K (P01111 whole entry Q61K): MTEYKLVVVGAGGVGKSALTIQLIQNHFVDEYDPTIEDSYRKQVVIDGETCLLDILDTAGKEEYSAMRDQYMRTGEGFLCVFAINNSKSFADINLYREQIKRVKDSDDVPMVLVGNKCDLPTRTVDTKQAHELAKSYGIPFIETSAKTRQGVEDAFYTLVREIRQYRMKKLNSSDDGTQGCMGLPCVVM
Sequence of NRAS Q61K (P62937 whole entry): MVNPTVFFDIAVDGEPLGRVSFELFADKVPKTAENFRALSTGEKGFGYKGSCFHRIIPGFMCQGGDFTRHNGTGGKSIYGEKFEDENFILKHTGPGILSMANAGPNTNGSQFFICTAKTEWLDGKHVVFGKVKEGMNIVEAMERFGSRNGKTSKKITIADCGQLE
Sequence of KRAS G13C (P01116 other isoform, or with tags, fused parts or gaps G13C): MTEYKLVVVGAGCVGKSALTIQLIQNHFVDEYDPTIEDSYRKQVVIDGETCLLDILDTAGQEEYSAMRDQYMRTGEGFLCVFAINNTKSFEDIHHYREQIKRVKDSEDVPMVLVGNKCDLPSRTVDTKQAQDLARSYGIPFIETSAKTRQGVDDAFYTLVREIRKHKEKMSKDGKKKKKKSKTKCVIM
Sequence of KRAS G13C (P62937 whole entry): as the sequence (P62937 whole entry) above
Sequence of KRAS Q61H (P01116 other isoform, or with tags, fused parts or gaps Q61H): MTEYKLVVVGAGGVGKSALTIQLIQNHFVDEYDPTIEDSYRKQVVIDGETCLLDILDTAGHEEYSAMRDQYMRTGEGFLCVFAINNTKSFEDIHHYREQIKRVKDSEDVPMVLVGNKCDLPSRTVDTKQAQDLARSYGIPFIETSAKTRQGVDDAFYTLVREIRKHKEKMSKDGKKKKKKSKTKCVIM
Sequence of KRAS Q61H (P62937 whole entry): as the sequence (P62937 whole entry) above
Sequence of KRAS G12S (P01116 other isoform, or with tags, fused parts or gaps G12S): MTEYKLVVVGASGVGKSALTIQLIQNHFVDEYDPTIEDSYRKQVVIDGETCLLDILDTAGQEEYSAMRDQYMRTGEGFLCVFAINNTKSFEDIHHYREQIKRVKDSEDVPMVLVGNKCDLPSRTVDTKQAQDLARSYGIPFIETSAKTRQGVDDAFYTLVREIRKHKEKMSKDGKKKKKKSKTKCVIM
Sequence of KRAS G12S (P62937 whole entry): as the sequence (P62937 whole entry) above
Sequence of KRAS G12V (P01116 other isoform, or with tags, fused parts or gaps G12V): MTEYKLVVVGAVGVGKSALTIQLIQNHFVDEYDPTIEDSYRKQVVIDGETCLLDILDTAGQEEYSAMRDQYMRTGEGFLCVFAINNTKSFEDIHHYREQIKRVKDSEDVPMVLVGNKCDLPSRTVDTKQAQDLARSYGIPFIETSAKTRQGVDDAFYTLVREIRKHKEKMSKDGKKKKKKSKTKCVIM
Sequence of KRAS G12V (P62937 whole entry): as the sequence (P62937 whole entry) above
Sequence of KRAS G12C (P01116-2 other isoform, or with tags, fused parts or gaps G12C): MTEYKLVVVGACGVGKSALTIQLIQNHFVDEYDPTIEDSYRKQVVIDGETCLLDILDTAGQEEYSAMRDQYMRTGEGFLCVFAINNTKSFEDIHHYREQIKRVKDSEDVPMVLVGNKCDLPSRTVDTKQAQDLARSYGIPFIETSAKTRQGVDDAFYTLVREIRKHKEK
Sequence of KRAS G12C (P62937 whole entry): as the sequence (P62937 whole entry) above
Sequence of NRAS Q61R (P01111 whole entry Q61R): as the sequence (P01111 whole entry Q61K) above, with K61R counted along it
Sequence of NRAS Q61R (P62937 whole entry): as the sequence (P62937 whole entry) above
Sequence of KRAS WT (P01116 other isoform, or with tags, fused parts or gaps): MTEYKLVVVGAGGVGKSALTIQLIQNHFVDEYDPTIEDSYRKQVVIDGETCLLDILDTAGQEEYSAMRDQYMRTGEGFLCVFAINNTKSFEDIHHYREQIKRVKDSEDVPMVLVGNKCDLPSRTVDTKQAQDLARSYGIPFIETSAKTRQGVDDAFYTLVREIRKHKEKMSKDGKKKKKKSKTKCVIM
Sequence of KRAS WT (P62937 whole entry): as the sequence (P62937 whole entry) above
Sequence of NRAS WT (P01111 whole entry): as the sequence (P01111 whole entry Q61K) above, with K61Q counted along it
Sequence of NRAS WT (P62937 whole entry): as the sequence (P62937 whole entry) above
Sequence of KRAS G13D (P01116 other isoform, or with tags, fused parts or gaps G13D): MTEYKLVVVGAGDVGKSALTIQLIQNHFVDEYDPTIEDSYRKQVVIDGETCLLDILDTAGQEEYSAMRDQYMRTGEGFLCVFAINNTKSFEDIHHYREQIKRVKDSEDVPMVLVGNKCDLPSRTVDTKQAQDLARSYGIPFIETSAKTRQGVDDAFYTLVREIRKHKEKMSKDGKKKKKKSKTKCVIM
Sequence of KRAS G13D (P62937 whole entry): as the sequence (P62937 whole entry) above
Sequence of NRAS G12C (P01111 whole entry G12C): as the sequence (P01111 whole entry Q61K) above, with G12C, K61Q counted along it
Sequence of NRAS G12C (P62937 whole entry): as the sequence (P62937 whole entry) above
Sequence of KRAS G12D (P01116 other isoform, or with tags, fused parts or gaps G12D): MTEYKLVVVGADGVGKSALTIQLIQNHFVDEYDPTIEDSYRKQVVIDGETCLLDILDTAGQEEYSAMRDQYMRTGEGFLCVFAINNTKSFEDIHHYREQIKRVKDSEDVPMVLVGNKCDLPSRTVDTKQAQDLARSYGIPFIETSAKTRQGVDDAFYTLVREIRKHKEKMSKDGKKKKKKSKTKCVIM
Sequence of KRAS G12D (P62937 whole entry): as the sequence (P62937 whole entry) above

Row | IC50 (NRAS Q61R) [nM] | IC50 (NRAS WT) [nM] | IC50 (KRAS Q61H) [nM] | IC50 (KRAS G13C) [nM] | IC50 (KRAS G12D) [nM] | IC50 (NRAS Q61K) [nM] | IC50 [2] [nM] | EC50 [3] [µM] | IC50 (KRAS G12C) [nM] | IC50 (KRAS G12S) [nM] | IC50 (KRAS WT) [nM] | IC50 (NRAS G12C) [nM] | IC50 (KRAS G12V) [nM] | IC50 (KRAS G13D) [nM] | EC50 ([3]; Homo sapiens) [µM] | IC50 ([2]; Homo sapiens, NCI-H358, 120 h) [nM] | Compound | IC50 [1] [nM] | IC50 ([1]; Homo sapiens, CAPAN-1, 120 h) [nM]
1 | 100 to 1000 | 100 to 1000 | 100 to 1000 | 100 to 1000 | 1000 to 10000 | 10 to 100 | 10 to 100 | < 5 | – | – | – | – | – | – | – | – | CCn1c(-c2cccnc2[C@H](C)OC)c2c3cc(ccc31)-c1cc(O)cc(c1)C[C@H](NC(=O)[C@H](C(C)C)N(C)C(=O)N1CC(N(C)C)C1)C(=O)N1CCC[C@H](N1)C(=O)OCC(C)(C)C2 [Compound A170] | 10 to 100 | –
2 | 1000 to 10000 | 100 to 1000 | 100 to 1000 | 100 to 1000 | 1000 to 10000 | 100 to 1000 | – | – | 100 to 1000 | 1000 to 10000 | 100 to 1000 | 100 to 1000 | 100 to 1000 | 100 to 1000 | < 5 | – | CCn1c(-c2cccnc2[C@H](C)OC)c2c3cc(ccc31)-c1cc(O)cc(c1)C[C@H](NC(=O)[C@@H]1CCCCCN1C(C)=O)C(=O)N1CCC[C@H](N1)C(=O)OCC(C)(C)C2 [Compound A176] | – | 1000 to 10000
3 | 100 to 1000 | 10 to 100 | 10 to 100 | 10 to 100 | 100 to 1000 | 100 to 1000 | – | – | 10 to 100 | 10 to 100 | 10 to 100 | 10 to 100 | 10 to 100 | 100 to 1000 | – | – | CCn1c(-c2cccnc2[C@H](C)OC)c2c3cc(ccc31)-c1cc(O)cc(c1)C[C@H](NC(=O)[C@H](C(C)C)N(C)C(=O)C1CCC(=O)N1C)C(=O)N1CCC[C@H](N1)C(=O)OCC(C)(C)C2 (some centres unmarked) [Compound A230] | – | 1000 to 10000
4 | 100 to 1000 | 100 to 1000 | 100 to 1000 | 100 to 1000 | 100 to 1000 | 100 to 1000 | – | – | 10 to 100 | 100 to 1000 | 100 to 1000 | 10 to 100 | 10 to 100 | 100 to 1000 | – | – | CCn1c(-c2cccnc2[C@H](C)OC)c2c3cc(ccc31)-c1csc(n1)C[C@H](NC(=O)N1CCN(C)CC1)C(=O)N1CCC[C@H](N1)C(=O)OCC(C)(C)C2 [Compound A265, N-((6^3S,4S,Z)-1^1-ethyl-1^2-(2-((S)-1-methoxyethyl)pyridin-3-yl)-10, 10-dimethyl-5,7-dioxo-6^1,6^2,6^3,6^4,6^5,6^6-hexahydro-1^1H-8-oxa-2 (4,2)-thiazola-1 (5,3)-indola-6 (1,3)-pyridazinacycloundecaphane-4-yl)-4-methylpiperazine-1-carboxamide] | – | 1000 to 10000
5 | 1000 to 10000 | 1000 to 10000 | 100 to 1000 | 1000 to 10000 | 1000 to 10000 | 1000 to 10000 | – | – | 1000 to 10000 | 1000 to 10000 | 1000 to 10000 | 1000 to 10000 | > 10000 | 1000 to 10000 | – | – | CCn1c(-c2cccnc2[C@H](C)OC)c2c3cc(ccc31)-c1csc(n1)C[C@H](NC(=O)[C@H](C(C)C)N(C)C(=O)N1[C@H](C)CN(C)C[C@@H]1C)C(=O)N1CCC[C@H](N1)C(=O)OCC(C)(C)C2 [Compound A272] | – | 1000 to 10000
6 | 1000 to 10000 | 1000 to 10000 | 100 to 1000 | 100 to 1000 | > 10000 | 1000 to 10000 | – | – | 1000 to 10000 | 1000 to 10000 | 1000 to 10000 | 1000 to 10000 | 1000 to 10000 | 1000 to 10000 | < 5 | – | CCn1c(-c2cccnc2[C@H](C)OC)c2c3cc(ccc31)-c1cc(c3cn[nH]c3c1)C[C@H](NC(=O)[C@H](C(C)C)N(C)C(C)=O)C(=O)N1CCC[C@H](N1)C(=O)OCC(C)(C)C2 [Compound A388] | – | 1000 to 10000
7 | 1000 to 10000 | 100 to 1000 | 100 to 1000 | 100 to 1000 | 100 to 1000 | 1000 to 10000 | – | – | 100 to 1000 | 100 to 1000 | 100 to 1000 | 100 to 1000 | 1000 to 10000 | 100 to 1000 | < 5 | – | CCn1c(-c2cccnc2[C@H](C)OC)c2c3cc(ccc31)-c1csc(n1)C[C@H](NC(=O)[C@H](C(C)C)N(C)C(=O)N1CC[C@@]13CCCNC3)C(=O)N1CCC[C@H](N1)C(=O)OCC(C)(C)C2 [Compound A435] | – | 1000 to 10000
8 | 100 to 1000 | 1000 to 10000 | 100 to 1000 | 1000 to 10000 | > 10000 | 100 to 1000 | – | – | 100 to 1000 | 1000 to 10000 | 1000 to 10000 | 100 to 1000 | 1000 to 10000 | – | – | 1000 to 10000 | CCn1c(-c2cccnc2[C@H](C)OC)c2c3cc(ccc31)-c1csc(n1)C[C@H](NC(=O)[C@H](C(C)C)N(C)C(=O)N1CC3(CCCN(C)C3=O)C1)C(=O)N1CCC[C@H](N1)C(=O)OCC(C)(C)C2 [Compound A453] | – | 1000 to 10000
9 | 1000 to 10000 | 1000 to 10000 | 100 to 1000 | 100 to 1000 | 1000 to 10000 | 1000 to 10000 | – | – | 1000 to 10000 | 1000 to 10000 | 1000 to 10000 | 1000 to 10000 | 1000 to 10000 | 1000 to 10000 | < 5 | – | CCn1c(-c2cccnc2[C@H](C)OC)c2c3cc(ccc31)-c1csc(n1)C[C@H](NC(=O)[C@H](C(C)C)N(C)C(=O)N1CC[C@@H]3CN(C)C[C@@H]31)C(=O)N1CCC[C@H](N1)C(=O)OCC(C)(C)C2 [Compound A470] | – | 100 to 1000
10 | 100 to 1000 | 100 to 1000 | 100 to 1000 | 100 to 1000 | 1000 to 10000 | 100 to 1000 | – | – | 100 to 1000 | 100 to 1000 | 100 to 1000 | 100 to 1000 | 100 to 1000 | 1000 to 10000 | – | – | CCn1c(-c2cccnc2[C@H](C)OC)c2c3cc(ccc31)-c1csc(n1)C[C@H](NC(=O)[C@H](C(C)C)N(C)C(=O)N1C[C@@H]3[C@@H](C1)OCCN3C)C(=O)N1CCC[C@H](N1)C(=O)OCC(C)(C)C2 [Compound A472] | – | 10 to 100
11 | 100 to 1000 | 100 to 1000 | 10 to 100 | 100 to 1000 | 1000 to 10000 | 100 to 1000 | – | – | 100 to 1000 | 100 to 1000 | 100 to 1000 | 100 to 1000 | 100 to 1000 | 1000 to 10000 | < 5 | – | CCn1c(-c2cccnc2[C@H](C)OC)c2c3cc(ccc31)-c1csc(n1)C[C@H](NC(=O)[C@H](C(C)C)N(C)C(=O)N1CCOCC13COC3)C(=O)N1CCC[C@H](N1)C(=O)OCC(C)(C)C2 [Compound A474] | – | 10 to 100
12 | 100 to 1000 | 100 to 1000 | 100 to 1000 | 100 to 1000 | 1000 to 10000 | 100 to 1000 | – | – | 100 to 1000 | 100 to 1000 | 100 to 1000 | 100 to 1000 | 100 to 1000 | 1000 to 10000 | < 5 | – | CCn1c(-c2cc(N3CCN(C)CC3)cnc2[C@H](C)OC)c2c3cc(ccc31)-c1csc(n1)C[C@H](NC(=O)[C@H](C(C)C)N(C)C(=O)[C@@H]1OCC[C@@H]1c1cccnc1)C(=O)N1CCC[C@H](N1)C(=O)OCC(C)(C)C2 [Compound A490] | – | 10 to 100
